Experimental data as given in article doi:10.1101/2024.08.19.608619, “Discovery of potent SARS-CoV-2 nsp3 macrodomain inhibitors uncovers lack of translation to cellular antiviral response” (bioRxiv, 2024).
Several values for one entry are separate records, joined by “and”; a condition that tells them apart may be missing. Identical values can stand only once. Like-named read-outs stand apart in the source and are kept apart here.

Columns and labels:
acetylcholinesterase (h) = molecular target: T1, acetylcholinesterase (h) (Homo sapiens, UniProt P22303); assay: In vitro CEREP profiling, acetylcholinesterase (h); type: biochemical; settings: test compound concentration 10 uM, Enzyme and Cell-based assays; for inhibition at 10 µM: read-out: perc_inhibition: % inhibition of control enzyme activity, acetylcholinesterase (h)
T1 construct: purchased Eurofins Cerep (SafetyScreen44), recognised from the panel format
Text: (§1) Supplement media-1.zip/Safety_Panel_Profile.csv, table | column: perc_inhibition

PDE3A (h) = molecular target: T2, PDE3A (h) (Homo sapiens, UniProt Q14432); assay: In vitro CEREP profiling, PDE3A (h); type: biochemical; settings: test compound concentration 10 uM, Enzyme and Cell-based assays; for inhibition at 10 µM: read-out: perc_inhibition: % inhibition of control enzyme activity, PDE3A (h)
T2 construct: purchased Eurofins Cerep (SafetyScreen44), recognised from the panel format
T2 sequence (Q14432 whole entry): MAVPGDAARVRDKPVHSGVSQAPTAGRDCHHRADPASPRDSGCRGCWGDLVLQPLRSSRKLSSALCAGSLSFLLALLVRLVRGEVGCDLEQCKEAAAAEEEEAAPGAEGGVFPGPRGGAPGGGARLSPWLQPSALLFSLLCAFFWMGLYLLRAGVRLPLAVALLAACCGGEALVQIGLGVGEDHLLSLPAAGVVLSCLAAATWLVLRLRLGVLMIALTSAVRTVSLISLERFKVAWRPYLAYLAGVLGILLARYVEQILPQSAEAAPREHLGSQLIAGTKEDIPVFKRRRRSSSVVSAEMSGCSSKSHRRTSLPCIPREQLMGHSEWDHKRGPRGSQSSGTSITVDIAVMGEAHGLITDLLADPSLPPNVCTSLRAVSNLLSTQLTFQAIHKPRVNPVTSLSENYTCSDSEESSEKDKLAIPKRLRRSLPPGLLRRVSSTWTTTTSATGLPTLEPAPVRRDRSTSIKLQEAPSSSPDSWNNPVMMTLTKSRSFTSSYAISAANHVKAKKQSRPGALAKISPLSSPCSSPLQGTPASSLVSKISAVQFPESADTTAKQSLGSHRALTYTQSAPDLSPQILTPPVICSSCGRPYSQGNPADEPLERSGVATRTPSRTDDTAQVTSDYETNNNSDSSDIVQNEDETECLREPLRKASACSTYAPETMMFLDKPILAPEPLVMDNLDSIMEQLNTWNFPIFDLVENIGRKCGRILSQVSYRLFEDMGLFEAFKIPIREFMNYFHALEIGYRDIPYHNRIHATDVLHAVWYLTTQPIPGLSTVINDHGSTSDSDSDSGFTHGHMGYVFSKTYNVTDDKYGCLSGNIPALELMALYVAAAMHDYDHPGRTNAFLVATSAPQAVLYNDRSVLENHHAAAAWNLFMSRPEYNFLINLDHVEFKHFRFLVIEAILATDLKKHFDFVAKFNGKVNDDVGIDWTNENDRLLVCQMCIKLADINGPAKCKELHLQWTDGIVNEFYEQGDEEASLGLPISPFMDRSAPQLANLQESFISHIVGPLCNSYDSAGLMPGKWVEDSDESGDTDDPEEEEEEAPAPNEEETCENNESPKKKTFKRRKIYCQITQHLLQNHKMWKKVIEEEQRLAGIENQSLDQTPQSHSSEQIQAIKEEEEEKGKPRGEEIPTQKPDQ
Text: as §1

[1] = molecular target: T3, N neuronal alpha4beta2 (h) (Homo sapiens, UniProt P17787+P43681); assay: In vitro CEREP profiling, N neuronal alpha4beta2 (h) (agonist radioligand); type: binding; settings: test compound concentration 10 uM; for inhibition at 10 µM: read-out: perc_inhibition (% inhibition of the binding of a ligand specific for each target)
T3 construct: purchased Eurofins Cerep (SafetyScreen44), recognised from the panel format
T3 sequence (P43681 29-627 limits assumed): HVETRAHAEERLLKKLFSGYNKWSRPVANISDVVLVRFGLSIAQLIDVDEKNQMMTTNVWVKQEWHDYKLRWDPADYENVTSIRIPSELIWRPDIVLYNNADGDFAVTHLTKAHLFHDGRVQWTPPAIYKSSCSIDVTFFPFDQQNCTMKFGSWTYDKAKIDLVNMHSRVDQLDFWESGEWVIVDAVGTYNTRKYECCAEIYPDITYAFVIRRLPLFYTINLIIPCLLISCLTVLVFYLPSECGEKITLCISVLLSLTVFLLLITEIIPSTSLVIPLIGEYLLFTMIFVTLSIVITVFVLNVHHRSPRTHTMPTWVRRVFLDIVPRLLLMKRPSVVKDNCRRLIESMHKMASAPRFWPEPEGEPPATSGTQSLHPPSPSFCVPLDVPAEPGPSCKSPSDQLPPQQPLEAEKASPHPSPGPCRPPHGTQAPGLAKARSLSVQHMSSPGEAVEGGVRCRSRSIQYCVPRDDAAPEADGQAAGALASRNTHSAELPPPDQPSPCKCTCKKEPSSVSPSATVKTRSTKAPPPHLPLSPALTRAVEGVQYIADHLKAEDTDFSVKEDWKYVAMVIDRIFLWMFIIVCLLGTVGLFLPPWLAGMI
T3 sequence (P17787 26-502): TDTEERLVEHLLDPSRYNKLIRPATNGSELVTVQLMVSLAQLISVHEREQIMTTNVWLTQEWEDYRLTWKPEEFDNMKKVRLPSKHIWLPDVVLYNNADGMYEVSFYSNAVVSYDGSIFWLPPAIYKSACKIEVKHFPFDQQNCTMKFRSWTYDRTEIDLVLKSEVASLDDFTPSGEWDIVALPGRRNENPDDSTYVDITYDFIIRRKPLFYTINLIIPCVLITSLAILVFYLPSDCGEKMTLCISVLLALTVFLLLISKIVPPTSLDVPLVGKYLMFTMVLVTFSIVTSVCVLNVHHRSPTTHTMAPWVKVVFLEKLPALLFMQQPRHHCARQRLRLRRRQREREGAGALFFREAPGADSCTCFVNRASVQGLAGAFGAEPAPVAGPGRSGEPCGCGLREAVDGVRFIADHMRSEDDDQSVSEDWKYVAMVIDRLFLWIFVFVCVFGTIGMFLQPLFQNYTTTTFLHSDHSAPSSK
Text: as §1

CYP = CYP inhibition; type: in vitro ADME; settings: In vitro CYP inhibition pooled; for potency: potency class in words
Text: Supplement media-1.zip/CYP_Inhibition.csv, table | column: ic50; potency

[2] = In vitro rat hepatocyte stability; type: in vitro ADME
Text: Supplement media-1.zip/Hepatocyte_Stability.csv, table | column: clint; t_half

CB2 (h) = molecular target: T4, CB2 (h) (Homo sapiens, UniProt P34972); assay: In vitro CEREP profiling, CB2 (h) (agonist radioligand); type: binding; settings: test compound 10 uM; for inhibition at 10 µM: read-out: perc_inhibition (% inhibition of the binding of a ligand specific for each target)
T4 construct: purchased Eurofins Cerep (SafetyScreen44), recognised from the panel format
T4 sequence (P34972 whole entry): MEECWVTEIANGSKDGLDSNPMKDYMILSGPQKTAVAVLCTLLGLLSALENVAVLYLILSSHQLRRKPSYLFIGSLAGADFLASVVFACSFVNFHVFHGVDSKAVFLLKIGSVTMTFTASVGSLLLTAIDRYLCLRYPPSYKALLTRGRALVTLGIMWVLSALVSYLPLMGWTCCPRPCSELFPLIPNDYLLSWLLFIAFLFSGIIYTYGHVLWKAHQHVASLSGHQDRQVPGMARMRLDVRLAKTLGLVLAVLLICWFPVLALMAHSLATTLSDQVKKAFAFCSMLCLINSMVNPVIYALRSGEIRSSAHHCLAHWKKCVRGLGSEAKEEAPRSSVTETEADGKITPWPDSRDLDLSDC
Text: as §1

[3] = Hepatic microsomal stability, MLM; type: in vitro ADME
5-HT2A (h) = molecular target: T5, 5-HT2A (h) (Homo sapiens, UniProt P28223); assay: In vitro CEREP profiling, 5-HT2A (h) (agonist radioligand); type: binding; settings: test compound concentration 10 uM; for inhibition at 10 µM: read-out: perc_inhibition, % inhibition of the binding of a ligand specific for each target
T5 construct: purchased Eurofins Cerep (SafetyScreen44), recognised from the panel format
T5 sequence (P28223 whole entry): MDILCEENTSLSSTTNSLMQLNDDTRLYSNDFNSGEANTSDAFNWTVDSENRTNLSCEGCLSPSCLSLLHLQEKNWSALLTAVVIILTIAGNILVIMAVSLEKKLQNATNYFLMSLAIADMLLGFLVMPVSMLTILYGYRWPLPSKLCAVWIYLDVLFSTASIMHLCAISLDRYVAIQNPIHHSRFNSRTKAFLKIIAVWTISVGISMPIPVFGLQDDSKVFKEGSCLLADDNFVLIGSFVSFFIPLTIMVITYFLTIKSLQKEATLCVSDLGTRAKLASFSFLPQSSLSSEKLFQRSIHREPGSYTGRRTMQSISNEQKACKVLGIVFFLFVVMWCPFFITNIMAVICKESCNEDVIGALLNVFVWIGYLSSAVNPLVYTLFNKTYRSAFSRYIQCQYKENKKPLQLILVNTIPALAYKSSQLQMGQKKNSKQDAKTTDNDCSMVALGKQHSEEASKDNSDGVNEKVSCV
Text: as §1

alpha2A (h) = molecular target: T6, alpha2A (h) (Homo sapiens, UniProt P08913); assay: In vitro CEREP profiling, alpha2A (h) (antagonist radioligand); type: binding; settings: test compound 10 uM; for inhibition at 10 µM: read-out: perc_inhibition (% inhibition of the binding of a ligand specific for each target)
T6 construct: purchased Eurofins Cerep (SafetyScreen44), recognised from the panel format
T6 sequence (P08913 1-465): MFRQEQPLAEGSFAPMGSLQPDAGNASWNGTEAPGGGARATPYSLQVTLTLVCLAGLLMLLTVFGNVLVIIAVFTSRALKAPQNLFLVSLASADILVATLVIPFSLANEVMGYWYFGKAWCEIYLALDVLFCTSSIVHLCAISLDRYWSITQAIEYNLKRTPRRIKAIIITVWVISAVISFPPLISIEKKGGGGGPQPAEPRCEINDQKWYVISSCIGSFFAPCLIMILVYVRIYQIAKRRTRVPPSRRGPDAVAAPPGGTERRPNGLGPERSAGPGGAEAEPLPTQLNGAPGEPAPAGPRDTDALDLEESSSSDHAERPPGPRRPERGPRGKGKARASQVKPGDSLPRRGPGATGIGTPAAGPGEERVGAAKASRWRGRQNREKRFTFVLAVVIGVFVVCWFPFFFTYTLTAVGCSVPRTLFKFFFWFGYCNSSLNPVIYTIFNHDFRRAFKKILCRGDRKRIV
Text: as §1

Lck kinase (h) = molecular target: T7, Lck kinase (h) (Homo sapiens, UniProt P06239); assay: In vitro CEREP profiling, Lck kinase (h); type: biochemical; settings: test compound concentration 10 uM, Enzyme and Cell-based assays; for inhibition at 10 µM: read-out: perc_inhibition: % inhibition of control enzyme activity, Lck kinase (h)
T7 construct: purchased Eurofins Cerep (SafetyScreen44), recognised from the panel format
T7 sequence (P06239 whole entry): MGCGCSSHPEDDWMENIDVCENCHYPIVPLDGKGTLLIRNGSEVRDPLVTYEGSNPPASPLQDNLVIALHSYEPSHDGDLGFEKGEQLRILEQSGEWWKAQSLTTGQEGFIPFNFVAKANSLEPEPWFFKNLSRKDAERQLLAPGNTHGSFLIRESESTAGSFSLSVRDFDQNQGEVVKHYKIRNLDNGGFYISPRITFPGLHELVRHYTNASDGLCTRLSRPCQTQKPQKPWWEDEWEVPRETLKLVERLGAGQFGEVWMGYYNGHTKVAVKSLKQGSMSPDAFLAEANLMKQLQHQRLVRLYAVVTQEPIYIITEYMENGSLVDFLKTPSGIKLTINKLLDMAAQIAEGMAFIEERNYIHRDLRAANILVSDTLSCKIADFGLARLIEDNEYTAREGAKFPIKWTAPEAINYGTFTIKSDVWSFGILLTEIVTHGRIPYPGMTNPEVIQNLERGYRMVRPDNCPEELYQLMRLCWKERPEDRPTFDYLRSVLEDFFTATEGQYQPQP
Text: as §1

delta (DOP) (h) = molecular target: T8, delta (DOP) (h) (Homo sapiens, UniProt P41143); assay: In vitro CEREP profiling, delta (DOP) (h) (agonist radioligand); type: binding; settings: test compound concentration 10 uM; for inhibition at 10 µM: read-out: perc_inhibition (% inhibition of the binding of a ligand specific for each target)
T8 construct: purchased Eurofins Cerep (SafetyScreen44), recognised from the panel format
T8 sequence (P41143 whole entry): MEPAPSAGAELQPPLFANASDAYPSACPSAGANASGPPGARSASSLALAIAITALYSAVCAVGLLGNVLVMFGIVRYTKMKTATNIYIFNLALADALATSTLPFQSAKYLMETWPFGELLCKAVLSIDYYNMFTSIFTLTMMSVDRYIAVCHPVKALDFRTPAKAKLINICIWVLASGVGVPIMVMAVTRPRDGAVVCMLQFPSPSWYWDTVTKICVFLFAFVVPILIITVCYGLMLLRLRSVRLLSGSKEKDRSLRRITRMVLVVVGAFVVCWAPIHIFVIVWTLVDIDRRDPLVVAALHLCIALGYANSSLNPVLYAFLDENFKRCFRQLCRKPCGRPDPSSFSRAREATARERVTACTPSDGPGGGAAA
Text: as §1

5-HT transporter (h) = molecular target: T9, 5-HT transporter (h) (Homo sapiens, UniProt P31645); assay: In vitro CEREP profiling, 5-HT transporter (h) (antagonist radioligand); settings: test compound concentration 10 uM
T9 construct: purchased Eurofins Cerep (SafetyScreen44), recognised from the panel format
T9 sequence (P31645 whole entry): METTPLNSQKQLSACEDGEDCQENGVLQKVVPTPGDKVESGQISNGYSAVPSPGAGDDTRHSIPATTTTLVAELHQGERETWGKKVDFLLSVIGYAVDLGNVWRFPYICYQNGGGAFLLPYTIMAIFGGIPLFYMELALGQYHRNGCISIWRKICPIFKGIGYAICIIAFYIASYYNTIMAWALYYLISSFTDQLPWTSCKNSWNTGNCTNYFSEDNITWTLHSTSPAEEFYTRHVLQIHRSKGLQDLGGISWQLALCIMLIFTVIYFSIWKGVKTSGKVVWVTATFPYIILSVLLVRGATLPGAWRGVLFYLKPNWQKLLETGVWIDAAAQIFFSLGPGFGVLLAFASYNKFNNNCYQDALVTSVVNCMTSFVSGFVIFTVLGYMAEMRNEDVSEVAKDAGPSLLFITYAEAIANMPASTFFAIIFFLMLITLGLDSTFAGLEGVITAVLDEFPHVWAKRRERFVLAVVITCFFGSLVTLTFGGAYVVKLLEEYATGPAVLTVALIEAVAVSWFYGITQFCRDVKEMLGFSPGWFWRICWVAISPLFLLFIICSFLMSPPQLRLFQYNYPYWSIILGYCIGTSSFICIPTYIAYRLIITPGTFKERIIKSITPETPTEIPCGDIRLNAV
Text: as §1

D1 (h) = molecular target: T10, D1 (h) (Homo sapiens, UniProt P21728); assay: In vitro CEREP profiling, D1 (h) (antagonist radioligand); type: binding; settings: test compound 10 uM; for inhibition at 10 µM: read-out: perc_inhibition (% inhibition of the binding of a ligand specific for each target)
T10 construct: purchased Eurofins Cerep (SafetyScreen44), recognised from the panel format
T10 sequence (P21728 whole entry): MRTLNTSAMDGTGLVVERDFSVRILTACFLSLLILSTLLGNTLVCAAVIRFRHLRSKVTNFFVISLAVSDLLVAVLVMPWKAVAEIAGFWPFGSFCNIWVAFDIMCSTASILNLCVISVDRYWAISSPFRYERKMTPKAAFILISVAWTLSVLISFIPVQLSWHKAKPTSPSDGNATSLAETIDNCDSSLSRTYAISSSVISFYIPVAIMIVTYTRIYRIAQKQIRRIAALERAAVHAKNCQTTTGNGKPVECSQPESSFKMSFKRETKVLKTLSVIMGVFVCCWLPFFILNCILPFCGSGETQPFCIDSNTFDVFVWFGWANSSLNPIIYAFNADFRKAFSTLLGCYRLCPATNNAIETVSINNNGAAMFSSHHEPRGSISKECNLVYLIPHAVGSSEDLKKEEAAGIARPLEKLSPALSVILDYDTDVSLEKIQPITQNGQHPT
Text: as §1

[4] = tested on: SARS-CoV-2, isolate USA-WA1/2020; assay: microbe, parasite or virus in culture; type: cell-based
GR (h) = molecular target: T11, GR (h) (Homo sapiens, UniProt P04150); assay: In vitro CEREP profiling, GR (h) (agonist radioligand); type: binding; settings: test compound concentration 10 uM; for inhibition at 10 µM: read-out: perc_inhibition, % inhibition of the binding of a ligand specific for each target
T11 construct: purchased Eurofins Cerep (SafetyScreen44), recognised from the panel format
T11 sequence (P04150 1-777): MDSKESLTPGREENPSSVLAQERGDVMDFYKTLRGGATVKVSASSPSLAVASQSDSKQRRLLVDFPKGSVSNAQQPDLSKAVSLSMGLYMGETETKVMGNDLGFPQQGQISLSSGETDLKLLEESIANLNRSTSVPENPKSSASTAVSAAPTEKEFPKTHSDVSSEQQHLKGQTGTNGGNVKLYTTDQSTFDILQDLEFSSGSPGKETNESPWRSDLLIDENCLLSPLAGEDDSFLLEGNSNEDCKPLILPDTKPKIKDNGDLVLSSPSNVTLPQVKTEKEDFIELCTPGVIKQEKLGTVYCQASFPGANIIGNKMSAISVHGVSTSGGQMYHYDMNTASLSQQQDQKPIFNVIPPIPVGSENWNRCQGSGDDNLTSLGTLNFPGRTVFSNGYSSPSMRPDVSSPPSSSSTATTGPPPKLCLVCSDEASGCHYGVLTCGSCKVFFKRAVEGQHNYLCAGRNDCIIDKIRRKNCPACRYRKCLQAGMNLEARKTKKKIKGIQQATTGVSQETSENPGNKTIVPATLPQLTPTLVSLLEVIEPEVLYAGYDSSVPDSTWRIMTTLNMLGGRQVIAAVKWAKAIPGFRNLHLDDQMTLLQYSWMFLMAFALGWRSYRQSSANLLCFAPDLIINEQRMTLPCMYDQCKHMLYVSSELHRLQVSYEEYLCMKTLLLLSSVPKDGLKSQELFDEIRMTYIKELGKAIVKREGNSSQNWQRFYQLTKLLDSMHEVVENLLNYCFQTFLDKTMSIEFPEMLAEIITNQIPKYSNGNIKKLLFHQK
Text: as §1

[5] = In vitro mouse liver microsomal stability
[6] = HeLa-ACE2 SARS-CoV-2 antiviral effect without P-gp inhibitor, maximum measured response
[7] = HeLa-ACE2 SARS-CoV-2 antiviral effect without P-gp inhibitor, maximum measured response of dose series
[8] = HeLa-ACE2 SARS-CoV-2 antiviral effect without P-gp inhibitor, minimum measured response
[9] = HeLa-ACE2 SARS-CoV-2 antiviral effect without P-gp inhibitor, minimum measured response of dose series
[10] = In vitro mouse liver microsomal stability, no cofactor
[11] = liver microsomes; In vitro mouse liver microsomal stability
[12] = Severe acute respiratory syndrome coronavirus 2, HeLa-ACE2
[13] = Severe acute respiratory syndrome coronavirus 2, HeLa-ACE2, read-out: HelaACE2 EC50

Row | SMILES | potency (CYP; isoform 1A2) | potency (CYP; isoform 2C9) | potency (CYP; isoform 2C19) | potency (CYP; isoform 2D6) | potency (CYP; isoform 3A4) | clint [2] | t_half [2] | perc_remaining [3, 5] | t_half [3, 5] | perc_inhibition: % inhibition of the binding of a ligand specific for each target, 5-HT transporter (h) (antagonist radioligand) (5-HT transporter (h)) | perc_max_measured [4, 6] | perc_max_measured [4, 7] | perc_min_measured [4, 8] | perc_min_measured [4, 9] | inhibition at 10 µM (acetylcholinesterase (h)) | inhibition at 10 µM (PDE3A (h)) | inhibition at 10 µM [1] | inhibition at 10 µM (CB2 (h)) | perc_remaining_no_cofactor [3, 10] | microsomal CLint [3, 11] | further results
1 | CC(C)[C@@H](Nc1ncnc2[nH]c(-c3cnn(C)c3C#N)cc12)c1ccc2c(n1)OCCO2 [ASAP-0010716] | moderate | moderate | moderate | weak | moderate | 182.0 uL/min/1E6 cells | 3.8 min | 1.0% | 4.5 min | 9% | 105.062% | 119.294% | 1.471% | 1.653% |  |  |  |  |  |  | perc_inhibition: % inhibition of control enzyme activity, acetylcholinesterase (h) (acetylcholinesterase (h)): 22%; perc_inhibition: % inhibition of control enzyme activity, PDE3A (h) (PDE3A (h)): 37%; perc_inhibition (% inhibition of the binding of a ligand specific for each target) [1]: -2%; IC50 (CYP; isoform 1A2): 8.86 µM; IC50 (CYP; isoform 2C9): 4.34 µM; IC50 (CYP; isoform 2C19): 9.51 µM; IC50 (CYP; isoform 2D6): 22.7 µM; IC50 (CYP; isoform 3A4): 2.07 µM; perc_inhibition (% inhibition of the binding of a ligand specific for each target) (CB2 (h)): 16%; clint [3, 5]: 371.0 µL/min/mg; perc_remaining_no_cofactor ([3]; In vitro mouse liver microsomal stability; no cofactor): 99.0%; perc_inhibition (% inhibition of the binding of a ligand specific for each target) (5-HT2A (h)): 14%; perc_inhibition (% inhibition of the binding of a ligand specific for each target) (alpha2A (h)): 9%; perc_inhibition: % inhibition of control enzyme activity, Lck kinase (h) (Lck kinase (h)): 34%; perc_inhibition (% inhibition of the binding of a ligand specific for each target) (delta (DOP) (h)): 71%; perc_inhibition (% inhibition of the binding of a ligand specific for each target) (D1 (h)): 10%; EC90 ([4]; HeLa-ACE2 SARS-CoV-2 antiviral effect without P-gp inhibitor, read-out: ec90): 7.55 µM and 9.22 µM; perc_inhibition (% inhibition of the binding of a ligand specific for each target) (GR (h)): 22%
2 | CC(C)C(Nc1ncnc2[nH]c(C(=O)NC3CCN(C)C3)cc12)c1ccc2c(c1)S(=O)(=O)CCC2 (stereo not drawn) [ASAP-0011198] | weak | weak | weak | weak | weak | 9.3 uL/min/1E6 cells | 145.0 min and 74.8 min | 80.0% | 151.0 min | 1% | 109.068% | 108.327% | 93.8% | 87.557% | 28% | 4% | -2% | -8% | 92.0% | 11 µL/min/mg | hepatocyte CLint ([2]; rat, hepatocytes): 4.78 µL/min/1e6 cells; inhibition at 10 µM (5-HT2A (h)): 1%; inhibition at 10 µM (alpha2A (h)): 6%; inhibition at 10 µM (Lck kinase (h)): 15%; inhibition at 10 µM (delta (DOP) (h)): -16%; inhibition at 10 µM (D1 (h)): -3%; EC50 [4, 12]: > 20 µM; EC90 [4, 12]: > 20 µM; EC50 [4, 13]: > 20 µM; inhibition at 10 µM (GR (h)): 11%
3 | Cc1nn(C)cc1-c1cc2c(NC(c3ccc4c(c3)S(=O)(=O)CCC4)C(C)C)ncnc2[nH]1 (stereo not drawn) [ASAP-0011446] |  |  |  |  |  |  |  | 4.0% | 8.3 min | -4% | 111.189% | 120.747% | 56.402% | 82.491% | 13% | 46% | -2% | -8% | 104.0% | 202 µL/min/mg | inhibition at 10 µM (5-HT2A (h)): 51%; inhibition at 10 µM (alpha2A (h)): 5%; inhibition at 10 µM (Lck kinase (h)): 33%; inhibition at 10 µM (delta (DOP) (h)): 16%; inhibition at 10 µM (D1 (h)): 3%; EC50 [4, 12]: > 20 µM; EC90 [4, 12]: > 20 µM; EC50 [4, 13]: > 20 µM; inhibition at 10 µM (GR (h)): 7%
